{"source": "patent US9567318B2", "about": "“Substituted pyrimidine compounds and uses thereof” (Memorial Sloan-Kettering Cancer Center, priority 2009, dated 2017)"}
{"test_system": "Kasumi-1 acute myeloid leukemia cells", "experiment": "Growth Inhibition Assay (Alamar blue), Kasumi-1", "type": "cell-based, human", "conditions": "Homo sapiens, Kasumi 1, 72 h, Kasumi-1 cells", "method": "(§1) The IC50 values listed for some of these compounds illustrate the antiproliferative effects of the subject compounds and were obtained using the Growth Inhibition assays described herein.\n(§2) Growth Inhibition Assay. Antiproliferative effects of inhibitors were evaluated using the dye Alamar blue. This reagent offers a rapid objective measure of cell viability in cell culture, and it uses the indicator dye resazurin to measure the metabolic capacity of cells, an indicator of cell viability. Briefly, cells were plated on Costar 96-well plates. For attached cells (such as SKBr3, MDA-MB-468, LNCaP, MRCS), 8,000 cells/well were used. For suspension cells (such as MOLM-13, Kasumi-1, OCI-Ly7, PBL), 20,000 cells/well were plated. Cells were allowed to incubate for 24 h at 37° C. before drug treatment. Drugs were added in triplicates at the indicated concentrations, and the plate was incubated for 72 h. Alamar Blue (440 μM) was added, and the plate read 6 h later using the Analyst GT (Fluorescence intensity mode, excitation 530 nm, emission 580 nm, with 560=dichroic mirror). Results were analyzed using the Softmax Pro software. The percentage cell growth inhibition was calculated by comparing fluorescence readings obtained from treated versus control cells, accounting for initial cell population (time zero).", "units": {"IC50": "µM"}}
{"smiles": "C=CC(=O)Nc1cc(N)nc(Sc2c(OCC)nc(N3CCN(C)CC3)nc2OCC)n1", "note": "[YK30, N-(6-amino-2-(4,6-diethoxy-2-(4-methylpiperazin-1-yl)pyrimidin-5-ylthio)pyrimidin-4-yl)acrylamide]", "IC50": 0.48}
{"smiles": "COc1nc(N2CCOCC2)nc(OC)c1Sc1nc(NC(C)=O)cc(NC(C)=O)n1", "note": "[YK8, N,N′-(2-(4,6-dimethoxy-2-morpholinopyrimidin-5-ylthio)pyrimidine-4,6-diyl)diacetamide]", "IC50": "> 100"}
{"smiles": "COc1nc(N2CCN(C)CC2)nc(OC)c1Sc1nc(N)cc(N)n1", "note": "[YK2, 2-(4,6-dimethoxy-2-(4-methylpiperazin-1-yl)pyrimidin-5-ylthio)pyrimidine-4,6-diamine]", "IC50": 57.2}
{"smiles": "CCCCN1CCN(c2nc(OC)c(Sc3nc(N)cc(N)n3)c(OC)n2)CC1", "note": "[YK25, 2-(2-(4-butylpiperazin-1-yl)-4,6-dimethoxypyrimidin-5-ylthio)pyrimidine-4,6-diamine]", "IC50": "> 100"}
{"smiles": "C/C=C/C(=O)Nc1cc(N)nc(Sc2c(OCC)nc(N3CCN(C)CC3)nc2OCC)n1", "note": "[YK34, (E)-N-(6-amino-2-(4,6-diethoxy-2-(4-methylpiperazin-1-yl)pyrimidin-5-ylthio)pyrimidin-4-yl)but-2-enamide]", "IC50": 55}
{"smiles": "CCOc1nc(N2CCN(C)CC2)nc(OCC)c1Sc1nc(N)cc(NC(=O)C2CC2)n1", "note": "[YK33, N-(6-amino-2-(4,6-diethoxy-2-(4-methylpiperazin-1-yl)pyrimidin-5-ylthio)pyrimidin-4-yl)cyclopropanecarboxamide]", "IC50": 88.7}
{"smiles": "COc1nc(N2CCN(C)CC2)nc(OC)c1Sc1nc(N)cc(NC(=O)CCN(C)C)n1", "note": "[YK51, N-(6-amino-2-(4,6-dimethoxy-2-(4-methylpiperazin-1-yl)pyrimidin-5-ylthio)pyrimidin-4-yl)-3-(dimethylamino)propanamide]", "IC50": 8}
{"smiles": "CCC(=O)Nc1cc(N)nc(Sc2c(OC)nc(N3CCN(C)CC3)nc2OC)n1", "note": "[YK13, N-(6-amino-2-(4,6-dimethoxy-2-(4-methylpiperazin-1-yl)pyrimidin-5-ylthio)pyrimidin-4-yl)propionamide]", "IC50": "> 100"}
{"smiles": "C=CC(=O)Nc1cc(N)nc(Sc2c(OCC)nc(N3CCCCC3)nc2OCC)n1", "note": "[YK37, N-(6-amino-2-(4,6-diethoxy-2-(piperidin-1-yl)pyrimidin-5-ylthio)pyrimidin-4-yl)acrylamide]", "IC50": 2.5}
{"smiles": "C=CC(=O)Nc1ccnc(Sc2c(OC)nc(N3CCCCC3)nc2OC)n1", "note": "[YK72, N-(2-(4,6-dimethoxy-2-(piperidin-1-yl)pyrimidin-5-ylthio)pyrimidin-4-yl)acrylamide]", "IC50": 2}
{"smiles": "C=CC(=O)Nc1cc(N)nc(Sc2c(OC)nc(N)nc2OC)n1", "note": "[YK50, N-(6-amino-2-(2-amino-4,6-dimethoxypyrimidin-5-ylthio)pyrimidin-4-yl)acrylamide]", "IC50": 1.5}
{"smiles": "CCCCCCCC(=O)Nc1cc(N)nc(Sc2c(OC)nc(N3CCCCC3)nc2OC)n1", "note": "[YK23, N-(6-amino-2-(4,6-dimethoxy-2-(piperidin-1-yl)pyrimidin-5-ylthio)pyrimidin-4-yl)octanamide]", "IC50": 13.2}
{"smiles": "COc1nc(N2CCN(C)CC2)nc(OC)c1Sc1nc(N)cc(NC(C)=O)n1", "note": "[YK53, N-(6-amino-2-(4,6-dimethoxy-2-(4-methylpiperazin-1-yl)pyrimidin-5-ylthio)pyrimidin-4-yl)acetamide]", "IC50": 16}
{"smiles": "COc1nc(N2CCN(C)CC2)nc(OC)c1Sc1nc(NC(C)=O)cc(NC(C)=O)n1", "note": "[YK1, N,N′-(2-(4,6-dimethoxy-2-(4-methylpiperazin-1-yl)pyrimidin-5-ylthio)pyrimidine-4,6-diyl)diacetamide]", "IC50": 15}
{"smiles": "C=CC(=O)Nc1cc(N)nc(Sc2c(OC)nc(N3CCOCC3)nc2OC)n1", "note": "[YK18, N-(6-amino-2-(4,6-dimethoxy-2-morpholinopyrimidin-5-ylthio)pyrimidin-4-yl)acrylamide]", "IC50": 3}
{"smiles": "CCC(=O)Nc1cc(N)nc(Sc2c(OC)nc(N3CCOCC3)nc2OC)n1", "note": "[YK15, N-(6-amino-2-(4,6-dimethoxy-2-morpholinopyrimidin-5-ylthio)pyrimidin-4-yl)propionamide]", "IC50": "> 100"}
{"smiles": "CCC(=O)Nc1cccc(Sc2c(C)nc(N3CCNCC3)nc2C)c1", "note": "[YK146, N-(3-(4,6-dimethyl-2-(piperazin-1-yl)pyrimidin-5-ylthio)phenyl)propionamide]", "IC50": 8.8}
{"smiles": "COc1nc(N2CCN(C)CC2)nc(OC)c1Sc1nccc(N)n1", "note": "[YK67, 2-(4,6-dimethoxy-2-(4-methylpiperazin-1-yl)pyrimidin-5-ylthio)pyrimidin-4-amine]", "IC50": 93.5}
{"smiles": "CCOc1nc(N2CCCCC2)nc(OCC)c1Sc1nc(NC(=O)C2CC2)cc(NC(=O)C2CC2)n1", "note": "[YK41, N,N′-(2-(4,6-diethoxy-2-(piperidin-1-yl)pyrimidin-5-ylthio)pyrimidine-4,6-diyl)dicyclopropanecarboxamide]", "IC50": "> 100"}
{"smiles": "CCOc1nc(N2CCOCC2)nc(OCC)c1Sc1nc(N)cc(NC(=O)c2ccco2)n1", "note": "[YK49, N-(6-amino-2-(4,6-diethoxy-2-morpholinopyrimidin-5-ylthio)pyrimidin-4-yl)furan-2-carboxamide]", "IC50": "> 100"}
{"smiles": "COc1nc(N2CCCCC2)nc(OC)c1Sc1nc(N)cc(N)n1", "note": "[YK12, 2-(4,6-dimethoxy-2-(piperidin-1-yl)pyrimidin-5-ylthio)pyrimidine-4,6-diamine]", "IC50": "> 100"}
{"smiles": "C=CC(=O)Nc1cc(N)nc(Sc2c(OC)nc(N3CCCCC3)nc2OC)n1", "note": "[YK19, N-(6-amino-2-(4,6-dimethoxy-2-(piperidin-1-yl)pyrimidin-5-ylthio)pyrimidin-4-yl)acrylamide]", "IC50": 2.5}
{"smiles": "CCOc1nc(N2CCCCC2)nc(OCC)c1Sc1nc(N)cc(NC(=O)C2CC2)n1", "note": "[YK40, N-(6-amino-2-(4,6-diethoxy-2-(piperidin-1-yl)pyrimidin-5-ylthio)pyrimidin-4-yl)cyclopropanecarboxamide]", "IC50": 38.3}
{"smiles": "COc1nc(NCCCCCCO)nc(OC)c1Sc1nc(N)cc(N)n1", "note": "[YK52, 6-(5-(4,6-diaminopyrimidin-2-ylthio)-4,6-dimethoxypyrimidin-2-ylamino)hexan-1-ol]", "IC50": 779}
{"smiles": "C=CC(=O)Nc1cc(N)nc(Sc2c(OCC)nc(N3CCOCC3)nc2OCC)n1", "note": "[YK44, N-(6-amino-2-(4,6-diethoxy-2-morpholinopyrimidin-5-ylthio)pyrimidin-4-yl)acrylamide]", "IC50": 1.2}
{"smiles": "COc1nc(N2CCCC2)nc(OC)c1Sc1nccc(N)n1", "note": "[YK70, 2-(4,6-dimethoxy-2-(pyrrolidin-1-yl)pyrimidin-5-ylthio)pyrimidin-4-amine]", "IC50": 25.2}
{"smiles": "COc1nc(N2CCCCC2)nc(OC)c1Sc1nccc(N)n1", "note": "[YK68, 2-(4,6-dimethoxy-2-(piperidin-1-yl)pyrimidin-5-ylthio)pyrimidin-4-amine]", "IC50": 14.7}
{"smiles": "CCC(=O)Nc1cc(N)nc(Sc2c(OC)nc(N3CCCCC3)nc2OC)n1", "note": "[YK16, N-(6-amino-2-(4,6-dimethoxy-2-(piperidin-1-yl)pyrimidin-5-ylthio)pyrimidin-4-yl)propionamide]", "IC50": "> 100"}
{"smiles": "CCC(=O)Nc1cc(N)nc(Sc2c(OC)nc(N3CCN(CCO)CC3)nc2OC)n1", "note": "[YK14, N-(6-amino-2-(2-(4-(2-hydroxyethyl)piperazin-1-yl)-4,6-dimethoxypyrimidin-5-ylthio)pyrimidin-4-yl)propionamide]", "IC50": "> 100"}
{"smiles": "COc1nc(F)nc(OC)c1Sc1nccc(NC(C)=O)n1", "note": "[YK62, N-(2-(2-fluoro-4,6-dimethoxypyrimidin-5-ylthio)pyrimidin-4-yl)acetamide]", "IC50": "> 100"}
{"test_system": "Kasumi-1 acute myeloid leukemia cells", "experiment": "Growth Inhibition Assay (Alamar blue), Kasumi-1", "type": "cell-based, human", "conditions": "Kasumi-1 cells, 72 h", "method": "as §1, §2", "units": {"IC50": "µM"}}
{"smiles": "CCC(=O)Nc1cccc(Sc2c(C)nc(N3CCNCC3)nc2C)c1", "note": "[YK146, N-(3-(4,6-dimethyl-2-(piperazin-1-yl)pyrimidin-5-ylthio)phenyl)propionamide]", "IC50": 9}
